From patent US20230131899A1, “INHIBITORS OF MICROBIALLY INDUCED AMYLOID” (Axial Therapeutics, Inc., priority 2020, published 2023) come the findings set out here.

Like-named read-outs stand apart in the source and are kept apart here.

This test has as its target T1, E. coli CsgA (Escherichia coli, UniProt P28307).
T1 construct: made in house; host or cells: E. coli NEB 3016 slyD::kan, pET11d
Briefly: In vitro ThioflavinT assay of CsgA aggregation (CsgA ThT Assay). In kind it is biochemical. Particulars: for remaining activity at 25 µM: compound 25 μM; for remaining activity at 100 µM: compound 100 μM. Summed up:
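Purified C-terminal His-tagged CsgA, monomerised by desalting and 30-kDa filtration, at 2-20 μM with 20-40 μM ThT in 50 mM potassium phosphate pH 7.3, 1% DMSO, compounds 3.125-200 uM; room temperature, fluorescence (ex 438/em 495 nm) read every 15 min. Background-subtracted signal expressed as percent inhibition versus vehicle at 6-6.5 or 8-9 h, or as percent control AUC.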

Where [1] appears, read: read-out: CsgA ThT Assay (10 μM CsgA) % Control AUC at 1005 minutes, 25 μM (activity range), CsgA 10 μM, black plates, 1005 minutes, class symbol.
Setting [2] is: read-out: CsgA ThT Assay (10 μM CsgA) % Control AUC at 1005 minutes, 25 μM, mean AUC as % of DMSO control, CsgA 10 μM, black plates, 1005 minutes.
Where [3] appears, read: read-out: CsgA ThT Assay (10 μM CsgA) % Control AUC at 1005 minutes, 100 μM (activity range), CsgA 10 μM, black plates, 1005 minutes, class symbol.
Setting [4] is: read-out: CsgA ThT Assay (10 μM CsgA) % Control AUC at 1005 minutes, 100 μM, mean AUC as % of DMSO control, CsgA 10 μM, black plates, 1005 minutes.
Where [5] appears, read: read-out: CsgA ThT Assay (2 μM CsgA) % Control Bmax 25 μM, activity range, class symbol, CsgA 2 μM, white plates.
Setting [6] is: read-out: CsgA ThT Assay (2 μM CsgA) % Control Bmax 25 μM, mean Bmax as percentage of DMSO control, CsgA 2 μM, white plates.
Where [7] appears, read: read-out: CsgA ThT Assay (2 μM CsgA) % Control Bmax 100 μM, activity range, class symbol, CsgA 2 μM, white plates.
[8] abbreviates: read-out: CsgA ThT Assay (2 μM CsgA) % Control Bmax 100 μM, mean Bmax as percentage of DMSO control, CsgA 2 μM, white plates.

T1 sequence (P28307 23-151): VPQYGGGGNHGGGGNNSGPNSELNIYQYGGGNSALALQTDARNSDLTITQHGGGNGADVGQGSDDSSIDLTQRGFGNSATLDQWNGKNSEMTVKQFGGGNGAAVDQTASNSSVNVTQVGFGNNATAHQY

With `Cn1c(=O)c2c(ncn2CCCCCN2CC(C(=O)O)n3c(c(-c4cccc(C(F)(F)F)c4)c(Cc4cccc5ccccc45)cc3=O)S2(=O)=O)n(C)c1=O` (stereo not drawn) [Compound 034, 2-(5-(1,3-dimethyl-2,6-dioxo-1,2,3,6-tetrahydro-7H-purin-7-yl)pentyl)-8-(naphthalen-1-ylmethyl)-6-oxo-9-(3-(trifluoromethyl)phenyl)-3,4-dihydro-2H,6H-pyrido[1,2-e][1,2,5]thiadiazine-4-carboxylic acid 1,1-dioxide], the remaining activity at 25 µM by setting is: under setting [1], more than 60%; under setting [2], 62%. The remaining activity at 100 µM under setting [3] was more than 60% and the remaining activity at 100 µM under setting [4] was determined as 95%.

For the compound `Cn1c(=O)c2c(ncn2CCCCN2CC(C(=O)O)n3c(c(-c4cccc(C(F)(F)F)c4)c(Cc4cccc5ccccc45)cc3=O)S2(=O)=O)n(C)c1=O` (stereo not drawn) [Compound 033, 2-(4-(1,3-dimethyl-2,6-dioxo-1,2,3,6-tetrahydro-7H-purin-7-yl)butyl)-8-(naphthalen-1-ylmethyl)-6-oxo-9-(3-(trifluoromethyl)phenyl)-3,4-dihydro-2H,6H-pyrido[1,2-e][1,2,5]thiadiazine-4-carboxylic acid 1,1-dioxide], the remaining activity at 25 µM reads like this: under setting [1], more than 60%; under setting [2], 68%. In addition, the remaining activity at 100 µM under setting [3] was more than 60% and the remaining activity at 100 µM under setting [4] worked out at 79%.

As to `CCCN1CC(C(=O)O)n2c(c(-c3cccc(C(F)(F)F)c3)c(C(F)(F)c3cccc4ccccc34)cc2=O)S1(=O)=O` (stereo not drawn) [Compound 138, 8-(difluoro(naphthalen-1-yl)methyl)-6-oxo-2-propyl-9-(3-(trifluoromethyl)phenyl)-3,4-dihydro-2H,6H-pyrido[1,2-e][1,2,5]thiadiazine-4-carboxylic acid 1,1-dioxide], the remaining activity at 25 µM under setting [5] was more than 60% and the remaining activity at 25 µM under setting [6] worked out at 73%. The remaining activity at 100 µM was 31 to 60% under setting [7] and 43% under setting [8].

For the compound `CN1CC(C(=O)O)n2c(c(-c3cccc(C(F)(F)F)c3)c(Cc3cccc4ccccc34)c(NCc3ccccc3)c2=O)S1(=O)=O` (stereo not drawn) [Compound 071], the remaining activity at 25 µM under setting [1] lay in the range of 11 to 31% and the remaining activity at 25 µM under setting [2] amounted to 25%. Moreover, the remaining activity at 100 µM was more than 60% under setting [3] and 78% under setting [4].

Turning to `CN1CC(C(=O)O)n2c(c(-c3cccc(C(F)(F)F)c3)c(Cc3cccc4ccccc34)c(C(=O)NC(C)(C)C)c2=O)S1(=O)=O` (stereo not drawn) [Compound 158, 7-(tert-butylcarbamoyl)-2-methyl-8-(naphthalen-1-ylmethyl)-6-oxo-9-(3-(trifluoromethyl)phenyl)-3,4-dihydro-2H,6H-pyrido[1,2-e][1,2,5]thiadiazine-4-carboxylic acid 1,1-dioxide], the remaining activity at 25 µM was more than 60% under setting [5] and 69% under setting [6]. Moreover, the remaining activity at 100 µM by setting is: under setting [7], more than 60%; under setting [8], 72%.

As to `O=C(O)C1CN(CCCCCCN2CC(C(=O)O)n3c2c(-c2cccc(C(F)(F)F)c2)c(Cc2cccc4ccccc24)c(Cl)c3=O)c2c(-c3cccc(C(F)(F)F)c3)c(Cc3cccc4ccccc34)c(Cl)c(=O)n21` (stereo not drawn) [Compound 193, 1,1′-(hexane-1,6-diyl)bis(6-chloro-7-(naphthalen-1-ylmethyl)-5-oxo-8-(3-(trifluoromethyl)phenyl)-1,2,3,5-tetrahydroimidazo[1,2-a]pyridine-3-carboxylic acid)], the remaining activity at 25 µM reads like this: under setting [5], 31 to 60%; under setting [6], 53%. For the same compound, the remaining activity at 100 µM is, setting by setting: under setting [7], less than 10%; under setting [8], 10%.

As for `CCCCN1CC(C(=O)O)n2c1c(-c1cccc(C(F)(F)F)c1)c(Cc1cccc3ccccc13)c(Cl)c2=O` (stereo not drawn) [Compound 163, 1-butyl-6-chloro-7-(naphthalen-1-ylmethyl)-5-oxo-8-(3-(trifluoromethyl)phenyl)-1,2,3,5-tetrahydroimidazo[1,2-a]pyridine-3-carboxylic acid], the remaining activity at 25 µM is, setting by setting: under setting [5], 31 to 60%; under setting [6], 33%. Further, the remaining activity at 100 µM under setting [7] was in the range of 31 to 60% and the remaining activity at 100 µM under setting [8] is 42%.

`CN1CC(C(=O)O)n2c(c(-c3cccc(C(F)(F)F)c3)c(Cc3cccc4ccccc34)c(C(=O)N3CCOCC3)c2=O)S1(=O)=O` (stereo not drawn) [Compound 160, 2-methyl-7-(morpholine-4-carbonyl)-8-(naphthalen-1-ylmethyl)-6-oxo-9-(3-(trifluoromethyl)phenyl)-3,4-dihydro-2H,6H-pyrido[1,2-e][1,2,5] thiadiazine-4-carboxylic acid 1,1-dioxide]: the remaining activity at 25 µM is more than 60% under setting [5] and 101% under setting [6]. In addition, the remaining activity at 100 µM by setting is: under setting [7], more than 60%; under setting [8], 116%.

Take `CCCN1CC(C(=O)O)n2c(c(-c3cccc(C(F)(F)F)c3)c(Cc3cccc4ccccc34)c(NC(=O)C(C)C)c2=O)S1(=O)=O` (stereo not drawn) [Compound 152, 7-isobutyramido-8-(naphthalen-1-ylmethyl)-6-oxo-2-propyl-9-(3-(trifluoromethyl)phenyl)-3,4-dihydro-2H,6H-pyrido[1,2-e][1,2,5]thiadiazine-4-carboxylic acid 1,1-dioxide]: the remaining activity at 25 µM is, setting by setting: under setting [5], more than 60%; under setting [6], 90%. In addition, the remaining activity at 100 µM by setting is: under setting [7], more than 60%; under setting [8], 107%.

For `CN(C)C(=O)c1c(Cc2cccc3ccccc23)c(-c2cccc(C(F)(F)F)c2)c2n(c1=O)C(C(=O)O)CN(C)S2(=O)=O` (stereo not drawn) [Compound 173, 7-(dimethylcarbamoyl)-2-methyl-8-(naphthalen-1-ylmethyl)-6-oxo-9-(3-(trifluoromethyl)phenyl)-3,4-dihydro-2H,6H-pyrido[1,2-e] [1,2,5] thiadiazine-4-carboxylic acid 1,1-dioxide], the remaining activity at 25 µM is, setting by setting: under setting [5], more than 60%; under setting [6], 73%. Moreover, the remaining activity at 100 µM is 31 to 60% under setting [7] and 40% under setting [8].

`O=C(O)C1CN(CC2CCCC2)c2c(-c3cccc(C(F)(F)F)c3)c(Cc3cccc4ccccc34)c(Cl)c(=O)n21` (stereo not drawn) [Compound 167, 6-chloro-1-(cyclopentylmethyl)-7-(naphthalen-1-ylmethyl)-5-oxo-8-(3-(trifluoromethyl)phenyl)-1,2,3,5-tetrahydroimidazo[1,2-a]pyridine-3-carboxylic acid]: the remaining activity at 25 µM under setting [5] is more than 60% and the remaining activity at 25 µM under setting [6] was 65%. Further, the remaining activity at 100 µM was 31 to 60% under setting [7] and 49% under setting [8].

In the case of `COc1ccc(CN2CC(C(=O)O)n3c2c(-c2cccc(C(F)(F)F)c2)c(Cc2cccc4ccccc24)c(Cl)c3=O)cc1` (stereo not drawn) [Compound 192, 6-chloro-1-(4-methoxybenzyl)-7-(naphthalen-1-ylmethyl)-5-oxo-8-(3-(trifluoromethyl)phenyl)-1,2,3,5-tetrahydroimidazo[1,2-a]pyridine-3-carboxylic acid], the remaining activity at 25 µM by setting is: under setting [5], more than 60%; under setting [6], 87%. Moreover, the remaining activity at 100 µM reads like this: under setting [7], more than 60%; under setting [8], 95%.

In the case of `O=C(O)C1CN(Cc2ccccc2)c2c(-c3cccc(C(F)(F)F)c3)c(Cc3cccc4ccccc34)c(Br)c(=O)n21` (stereo not drawn) [Compound 003, 1-benzyl-6-bromo-7-(naphthalen-1-ylmethyl)-5-oxo-8-(3-(trifluoromethyl)phenyl)-1,2,3,5-tetrahydroimidazo[1,2-a]pyridine-3-carboxylic acid], the remaining activity at 25 µM runs as follows: under setting [5], 31 to 60%; under setting [6], 54%. For the same compound, the remaining activity at 100 µM was 11 to 31% under setting [7] and 16% under setting [8].

On to `O=C(O)C1CN(CCc2ccccc2)c2c(-c3cccc(C(F)(F)F)c3)c(Cc3cccc4ccccc34)c(Cl)c(=O)n21` (stereo not drawn) [Compound 178, 6-chloro-7-(naphthalen-1-ylmethyl)-5-oxo-1-phenethyl-8-(3-(trifluoromethyl)phenyl)-1,2,3,5-tetrahydroimidazo[1,2-a]pyridine-3-carboxylic acid], for which the remaining activity at 25 µM by setting is: under setting [5], 31 to 60%; under setting [6], 57%. For the same compound, the remaining activity at 100 µM by setting is: under setting [7], less than 10%; under setting [8], 9%.

Regarding `CCCN1CC(C(=O)O)n2c(c(-c3cccc(C(F)(F)F)c3)c(Cc3cccc4ccccc34)c(OCC)c2=O)S1(=O)=O` (stereo not drawn) [Compound 143, 7-ethoxy-8-(naphthalen-1-ylmethyl)-6-oxo-2-propyl-9-(3-(trifluoromethyl)phenyl)-3,4-dihydro-2H,6H-pyrido[1,2-e][1,2,5]thiadiazine-4-carboxylic acid 1,1-dioxide], the remaining activity at 25 µM reads like this: under setting [5], more than 60%; under setting [6], 87%. Further, the remaining activity at 100 µM by setting is: under setting [7], more than 60%; under setting [8], 88%.
